Results published in ChEMBL document CHEMBL1201862, “PubChem BioAssay data set” (2004).
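Each compound was tested at five concentrations against cells in 96-well plates for 48 hours. GI50 marks 50% less growth.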 The source made the active and inactive calls. Rule as the data show it: active = GI50 up to about 1.1 µM and inactive = higher.

Assays:
Test in all cases: DTP human tumour cell line panel, 48 h
EKVX = tested on: EKVX
HCT-15 = tested on: HCT-15
HOP-62 = tested on: HOP-62
Hs-578T = tested on: Hs-578T
K562 = tested on: K562
MOLT-4 = tested on: MOLT-4
Malme-3M = tested on: Malme-3M
NCI-H226 = tested on: NCI-H226
NCI-H522 = tested on: NCI-H522
OVCAR-8 = tested on: OVCAR-8
RXF 393 = tested on: RXF 393
SF-295 = tested on: SF-295
SK-MEL-5 = tested on: SK-MEL-5
SNB-19 = tested on: SNB-19
SNB-75 = tested on: SNB-75
SR = tested on: SR
T47D = tested on: T47D
U-251 = tested on: U-251
RPMI-8226 = tested on: RPMI-8226

Row | SMILES | GI50 (EKVX) | GI50 (HCT-15) [µM] | GI50 (HOP-62) | GI50 (Hs-578T) | GI50 (K562) | GI50 (MOLT-4) | GI50 (Malme-3M) | GI50 (NCI-H226) | GI50 (NCI-H522) | GI50 (OVCAR-8) | GI50 (RXF 393) | GI50 (SF-295) | GI50 (SK-MEL-5) | GI50 (SNB-19) | GI50 (SNB-75) | GI50 (SR) | GI50 (T47D) | GI50 (U-251) | GI50 (RPMI-8226)
1 | CCCCCCOC(=O)C(N)Cc1ccc(OC)cc1 (centres undefined) | > 100 µM (inactive) | > 100 | > 100 µM (inactive) | > 100 µM (inactive) | > 100 µM (inactive) | > 100 µM (inactive) | > 100 µM (inactive) | > 100 µM (inactive) | > 100 µM (inactive) | > 100 µM (inactive) | > 100 µM (inactive) | > 100 µM (inactive) | > 100 µM (inactive) | > 100 µM (inactive) | > 100 µM (inactive) | > 100 µM (inactive) | > 100 µM (inactive) | > 100 µM (inactive) | –
2 | O=C(O)c1ccc(NNc2cc(=O)[nH]c(=O)[nH]2)cc1 | > 100 µM (inactive) | > 100 | > 100 µM (inactive) | > 100 µM (inactive) | > 100 µM (inactive) | > 100 µM (inactive) | > 100 µM (inactive) | > 100 µM (inactive) | – | > 100 µM (inactive) | > 100 µM (inactive) | > 100 µM (inactive) | > 100 µM (inactive) | > 100 µM (inactive) | 96.8 µM (inactive) | > 100 µM (inactive) | > 100 µM (inactive) | > 100 µM (inactive) | > 100 µM (inactive)
3 | CCOC(=O)c1ccc2nc3n(c2c1)C(c1c(F)cccc1F)SC3 (centres undefined) | 29.9 µM (inactive) | > 100 | 57.3 µM (inactive) | > 100 µM (inactive) | > 100 µM (inactive) | > 100 µM (inactive) | – | 15.1 µM (inactive) | – | > 100 µM (inactive) | 24.9 µM (inactive) | > 100 µM (inactive) | > 100 µM (inactive) | 95.3 µM (inactive) | > 100 µM (inactive) | 49.3 µM (inactive) | > 100 µM (inactive) | > 100 µM (inactive) | > 100 µM (inactive)
4 | O=C(/C=C/c1ccc(O)c(O)c1)OCCCOC(=O)/C=C/c1ccc(O)c(O)c1 | 33.4 µM (inactive) | 14 | 11.7 µM (inactive) | 49.5 µM (inactive) | 22.3 µM (inactive) | 10.9 µM (inactive) | 43.3 µM (inactive) | – | 11.6 µM (inactive) | 22.8 µM (inactive) | 26.8 µM (inactive) | 18 µM (inactive) | 15.9 µM (inactive) | 31.4 µM (inactive) | 47.2 µM (inactive) | 17.2 µM (inactive) | 35.6 µM (inactive) | 23.5 µM (inactive) | 17.4 µM (inactive)
5 | CO/C(=N\N=C\c1ccc(OC)c(OC)c1)c1ccncc1 | > 10 µM (inactive) | > 10 | > 10 µM (inactive) | > 10 µM (inactive) | > 10 µM (inactive) | > 10 µM (inactive) | > 10 µM (inactive) | > 10 µM (inactive) | – | > 10 µM (inactive) | – | – | > 10 µM (inactive) | – | > 10 µM (inactive) | > 10 µM (inactive) | > 10 µM (inactive) | > 10 µM (inactive) | > 10 µM (inactive)
6 | Nc1c(C(=O)O)nnc2ccc(Cl)cc12 | > 100 µM (inactive) | > 100 | > 100 µM (inactive) | > 100 µM (inactive) | > 100 µM (inactive) | > 100 µM (inactive) | > 100 µM (inactive) | 41.8 µM (inactive) | > 100 µM (inactive) | > 100 µM (inactive) | – | > 100 µM (inactive) | > 100 µM (inactive) | > 100 µM (inactive) | > 100 µM (inactive) | > 100 µM (inactive) | > 100 µM (inactive) | > 100 µM (inactive) | > 100 µM (inactive)
7 | Cc1ccc(O)c(C2=CC3=NNC(=O)C3C(c3cccc(Br)c3)C2)c1 (centres undefined) | 25.9 µM (inactive) | 20.9 | 55 µM (inactive) | 27.1 µM (inactive) | 25.8 µM (inactive) | 30.9 µM (inactive) | 25.9 µM (inactive) | – | – | 20.8 µM (inactive) | 14.2 µM (inactive) | 18.8 µM (inactive) | 23.1 µM (inactive) | 34.2 µM (inactive) | 22.6 µM (inactive) | 21.2 µM (inactive) | 20.5 µM (inactive) | 21.7 µM (inactive) | 22.1 µM (inactive)
8 | CCOC(=O)c1c(O)nc(O)c(CC)c1C | > 100 µM (inactive) | > 100 | > 100 µM (inactive) | > 100 µM (inactive) | > 100 µM (inactive) | > 100 µM (inactive) | > 100 µM (inactive) | > 100 µM (inactive) | > 100 µM (inactive) | > 100 µM (inactive) | > 100 µM (inactive) | > 100 µM (inactive) | > 100 µM (inactive) | > 100 µM (inactive) | > 100 µM (inactive) | – | > 100 µM (inactive) | > 100 µM (inactive) | > 100 µM (inactive)
